According to patent US20230165252A1, “ACTIVE COMPOUND COMBINATIONS” (Bayer Aktiengesellschaft, priority 2020, published 2023):
Read-outs that look alike come from different tables or passages of the source.

What was measured:
Type in all cases: cell-based
Alternaria alternate = assay: in vitro-Test with Alternaria alternate (microtiter growth inhibition); conditions: Alternaria
Method in brief: (§1)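 Fungal spores or mycelium in liquid potato dextrose medium are incubated on wells pre-coated with evaporated test material at 20° C. and 85% humidity. Absorbance at 620 nm is taken initially and 3-5 days post-application; efficacy (%) is scaled from untreated control growth (0%) to no growth (100%).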

Botrytis cinerea = assay: in vitro-Test with Botrytis cinerea (microtiter growth inhibition); conditions: applied alone
Method in brief: as §1

[1] = system: Colletotrichum lindemuthianum; assay: in vitro-Test with Colletotrichum lindemuthianum (microtiter growth inhibition); conditions: Colletotrichum lindemuthianum, read-out: Efficacy %; for inhibition of growth at 0.004 ppm: applied alone at 0.004 ppm; for inhibition of growth at 0.02 ppm: applied alone at 0.020 ppm; for inhibition of growth at 0.1 ppm: applied alone at 0.1 ppm; for inhibition of growth at 0.5 ppm: applied alone at 0.5 ppm
Procedure: The degree of efficacy expressed in % is denoted: 0% means an efficacy, which corresponds to that of the control, while an efficacy of 100% means that no disease is observed.
If the actual fungicidal activity exceeds the calculated value, then the activity of the combination is super-additive, i.e. a synergistic effect exists. In this case, the efficacy, which was actually observed, must be greater than the value for the expected efficacy (E), that was calculated from the abovementioned formula.
Example: In Vitro-Test with Fungal Microorganisms
Wells of 96-well microtiter plates are filled with 10 μl of a preparation of test compound or compound combination in methanol+emulsifier alkylaryl-polyglycol-ether. Thereafter, the solvent is evaporated in a hood. At the next step, 100 μl of liquid potato dextrose medium is given into each well, that has been amended with an appropriate concentration of spores or mycelium suspension of the test fungus.
With the aid of a photometer, the extinction in all wells is measured at the wavelength of 620 nm.
The microtiter plates are incubated at 20° C. and 85% relative humidity. The inhibition of growth is determined again photometrically 3-5 days after the application. Efficacy is calculated in relation to the untreated control, 0% efficacy means fungal growth as high as in untreated control while 100% efficacy means no fungal growth is measured.

Cordana musae = assay: in vitro-Test with Cordana musae (microtiter growth inhibition); conditions: Neocordana musae, single substance, read-out: Efficacy; for inhibition of growth at 0.02 ppm: 0.020 ppm
Method in brief: as §1

Diaporthe citri = assay: in vitro-Test with Diaporthe citri (microtiter growth inhibition); conditions: Diaporthe citri, read-out: Efficacy; for inhibition of growth at 0.02 ppm: 0.020 ppm
Method in brief: as §1

Fusarium culmorum = assay: in vitro-Test with Fusarium culmorum (microtiter growth inhibition); conditions: Fusarium culmorum, read-out: Efficacy; for inhibition of growth at 0.02 ppm: 0.020 ppm
Method in brief: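 Photometric extinction at 620 nm, measured at setup and again 3-5 days later, gives growth inhibition; 0% efficacy equals untreated-control growth, 100% means no growth. Compounds were applied in methanol/emulsifier, solvent evaporated, then spore or mycelium suspension in potato dextrose broth added; incubation at 20° C., 85% RH.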

Parastagonospora nodorum = assay: in vitro-Test with Parastagonospora nodorum (microtiter growth inhibition); conditions: for inhibition of growth at 0.004 ppm / inhibition of growth at 0.02 ppm / inhibition of growth at 0.1 ppm / inhibition of growth at 0.5 ppm: Parastagonospora nodorum, compound alone, read-out: Efficacy %
Method in brief: as §1

[2] = system: Ustilago segetum var. avenae; assay: in vitro-Test with Ustilago segetum var. avenae (microtiter growth inhibition); conditions: read-out: Efficacy %; for inhibition of growth at 0.02 ppm: 0.020 ppm
Method in brief: as §1

Cercospora beticola = assay: in vitro-Test with Cercospora beticola (microtiter growth inhibition); conditions: Cercospora beticola, read-out: Efficacy %
Method in brief: as §1

[3] = 0.02 ppm, alone, read-out: Efficacy %
[4] = applied alone, read-out: Efficacy

| Compound | inhibition of growth at 0.004 ppm [1] [%] | inhibition of growth at 0.02 ppm [1] [%] | inhibition of growth at 0.1 ppm [1] [%] | inhibition of growth at 0.5 ppm [1] [%] | inhibition of growth at 0.004 ppm (Cordana musae) [%] | inhibition of growth at 0.02 ppm (Cordana musae) [%] | inhibition of growth at 0.1 ppm (Cordana musae) [%] | inhibition of growth at 0.5 ppm (Cordana musae) [%] | inhibition of growth at 0.004 ppm (Diaporthe citri; applied alone) [%] | inhibition of growth at 0.02 ppm (Diaporthe citri; applied alone) [%] | inhibition of growth at 0.1 ppm (Diaporthe citri; applied alone) [%] | inhibition of growth at 0.5 ppm (Diaporthe citri; applied alone) [%] | inhibition of growth at 0.004 ppm (Fusarium culmorum) [%] | inhibition of growth at 0.02 ppm (Fusarium culmorum) [%] | inhibition of growth at 0.1 ppm (Fusarium culmorum) [%] | inhibition of growth at 0.5 ppm (Fusarium culmorum) [%] | inhibition of growth at 0.004 ppm (Parastagonospora nodorum; 0.004 ppm) [%] | inhibition of growth at 0.02 ppm (Parastagonospora nodorum; 0.020 ppm) [%] | inhibition of growth at 0.1 ppm (Parastagonospora nodorum; 0.1 ppm) [%] | inhibition of growth at 0.5 ppm (Parastagonospora nodorum; 0.5 ppm) [%] | also measured |
| --- | --- | --- | --- | --- | --- | --- | --- | --- | --- | --- | --- | --- | --- | --- | --- | --- | --- | --- | --- | --- | --- |
| Cc1ccc(C(F)(F)CNC(=O)c2c(Oc3cccc(C4CC4)c3F)nnc(Cl)c2C)c(C)c1 [Compound I-655, 6-chloro-3-(3-cyclopropyl-2-fluorophenoxy)-N-[2-(2,4-dimethylphenyl)-2,2-difluoroethyl]-5-methylpyridazine-4-carboxamide] | 0 | 20 | 98 | 100 | 2 | 4 | 100 | 100 | 0 | 0 | 13 | 100 | 0 | 7 | 7 | 19 | 0 | 0 | 41 | 100 | inhibition of growth at 0.004 ppm (Alternaria alternate; alone, read-out: Efficacy %): 0%; inhibition of growth at 0.02 ppm (Alternaria alternate; [3]): 0%; inhibition of growth at 0.1 ppm (Alternaria alternate; alone, read-out: Efficacy %): 20%; inhibition of growth at 0.5 ppm (Alternaria alternate; alone, read-out: Efficacy %): 100%; Efficacy (Botrytis cinerea; 0.004 ppm): 0%; Efficacy (Botrytis cinerea; 0.020 ppm): 0%; Efficacy (Botrytis cinerea; 0.1 ppm): 58%; Efficacy (Botrytis cinerea; 0.5 ppm): 100%; Efficacy (Parastagonospora nodorum; 0.004 ppm): 0%; Efficacy (Parastagonospora nodorum; 0.020 ppm): 0%; Efficacy (Parastagonospora nodorum; 0.1 ppm): 41%; Efficacy (Parastagonospora nodorum; 0.5 ppm): 100%; inhibition of growth at 0.004 ppm ([2]; compound alone): 7%; inhibition of growth at 0.02 ppm ([2]; compound alone): 6%; inhibition of growth at 0.1 ppm ([2]; compound alone): 0%; inhibition of growth at 0.5 ppm ([2]; compound alone): 0% |
| Cc1ccc(C(F)(F)CNC(=O)c2c(Oc3cccc(C4CC4)c3F)nnc(Cl)c2C)c(Cl)c1 [Compound I-746, 6-chloro-N-[2-(2-chloro-4-methylphenyl)-2,2-difluoroethyl]-3-(3-cyclopropyl-2-fluoro-phenoxy)-5-methylpyridazine-4-carboxamide] | 0 | 14 | 100 | 100 | 0 | 10 | 79 | 100 | 0 | 0 | 2 | 51 | 0 | 0 | 0 | 0 | 0 | 0 | 31 | 100 | inhibition of growth at 0.004 ppm (Alternaria alternate; alone, read-out: Efficacy %): 0%; inhibition of growth at 0.02 ppm (Alternaria alternate; [3]): 0%; inhibition of growth at 0.1 ppm (Alternaria alternate; alone, read-out: Efficacy %): 22%; inhibition of growth at 0.5 ppm (Alternaria alternate; alone, read-out: Efficacy %): 100%; inhibition of growth at 0.004 ppm (Cercospora beticola; alone, 0.004 ppm): 0%; inhibition of growth at 0.02 ppm (Cercospora beticola; alone, 0.020 ppm): 5%; inhibition of growth at 0.1 ppm (Cercospora beticola; alone, 0.1 ppm): 4%; inhibition of growth at 0.5 ppm (Cercospora beticola; alone, 0.5 ppm): 26%; inhibition of growth at 0.004 ppm ([2]; compound alone): 0%; inhibition of growth at 0.02 ppm ([2]; compound alone): 2%; inhibition of growth at 0.1 ppm ([2]; compound alone): 0%; inhibition of growth at 0.5 ppm ([2]; compound alone): 0%; inhibition of growth at 0.004 ppm ([2]; single compound): 0%; inhibition of growth at 0.02 ppm ([2]; single compound): 2%; inhibition of growth at 0.1 ppm ([2]; single compound): 0%; inhibition of growth at 0.5 ppm ([2]; single compound): 0% |
| Cc1ccc(C(F)(F)CNC(=O)c2c(Oc3cccc(C4CC4)c3F)nnc(Cl)c2C)cc1C [Compound I-749, 6-chloro-3-(3-cyclopropyl-2-fluorophenoxy)-N-[2-(3,4-dimethylphenyl)-2,2-difluoroethyl]-5-methylpyridazine-4-carboxamide] | 1 | 19 | 100 | 100 | 0 | 64 | 100 | 100 | 0 | 0 | 0 | 100 | 0 | 10 | 11 | 18 | 0 | 0 | 92 | 100 | inhibition of growth at 0.004 ppm (Alternaria alternate; [4]): 0%; inhibition of growth at 0.02 ppm (Alternaria alternate; applied alone, 0.020 ppm, read-out: Efficacy): 14%; inhibition of growth at 0.1 ppm (Alternaria alternate; [4]): 24%; inhibition of growth at 0.5 ppm (Alternaria alternate; [4]): 100%; inhibition of growth at 0.004 ppm (Cercospora beticola; alone, 0.004 ppm): 0%; inhibition of growth at 0.02 ppm (Cercospora beticola; alone, 0.020 ppm): 0%; inhibition of growth at 0.1 ppm (Cercospora beticola; alone, 0.1 ppm): 8%; inhibition of growth at 0.5 ppm (Cercospora beticola; alone, 0.5 ppm): 22%; inhibition of growth at 0.004 ppm (Cercospora beticola; applied alone at 0.004 ppm): 0%; inhibition of growth at 0.02 ppm (Cercospora beticola; applied alone at 0.020 ppm): 0%; inhibition of growth at 0.1 ppm (Cercospora beticola; applied alone at 0.1 ppm): 8%; inhibition of growth at 0.5 ppm (Cercospora beticola; applied alone at 0.5 ppm): 22%; inhibition of growth at 0.004 ppm (Diaporthe citri): 0%; inhibition of growth at 0.02 ppm (Diaporthe citri): 0%; inhibition of growth at 0.1 ppm (Diaporthe citri): 0%; inhibition of growth at 0.5 ppm (Diaporthe citri): 100%; inhibition of growth at 0.004 ppm ([2]; single compound): 1%; inhibition of growth at 0.02 ppm ([2]; single compound): 0%; inhibition of growth at 0.1 ppm ([2]; single compound): 0%; inhibition of growth at 0.5 ppm ([2]; single compound): 0% |
